Assay results taken from patent US12310963B2, “Pyrazole derivatives and use thereof” (Tarapeutics Science Inc., priority 2019, dated 2025).

Biological target: T1, BaF3-FL-BRAF-V600E (stably expressing BRAF-V600E kinase) (Homo sapiens, UniProt P15056, V600E)
T1 construct: human BCR-ABL (P210 or P210/T315I mutated), full-length BRAF-V600E; expressed in transfected cells; host or cells: mouse BaF3, retroviral MSCV-Puro
Assay: Growth of BaF3-FL-BRAF-V600E cells, Cell Titer-Glo, 72 h
Format: cell-based, mouse
From the text: In this example, mouse primary B cell BaF3 (purchased from ATCC, U.S.A.) was used. In addition, in this example, mouse BaF3-tel-PDGFRα (stably expressing PDGFRα kinase), mouse BaF3-tel-PDGFRβ (stably expressing PDGFRβ kinase), BaF3-P210 (stably expressing ABL kinase), BaF3-P210-T315I (stably expressing ABL-T315I kinase), BaF3-FL-BRAF-V600E (stably expressing BRAF-V600E kinase), BaF3-TEL-cKIT (stably expressing cKIT kinase), BaF3-TEL-VEGFR2 (stably expressing VEGFR2 kinase), BaF3-TEL-FGFR2 (stably expressing FGFR2 kinase) were also used. The above-mentioned cell trains were all constructed in our laboratory by the method as follows. The sequences of human BCR-ABL (P210 or P210/T315I mutated), full-length BRAF-V600E, cKIT, VEGFR2, FGFR2, PDGFRα, PDGFRβ kinase region were amplified respectively via PCR, and inserted respectively into a MSCV-Puro vector (purchased from Clontech) having a N-terminal TEL fragment and/or NPM fragment and/or TPR fragment, and stably transferred into mouse BaF3 cells by the retroviral method, and the growth factor IL-3 was removed. Eventually, cell lines which are transferred into proteins depending on PDGFRα, PDGFRβ were obtained.
In this example, solutions of the test compound at different concentrations (0.000508 μM, 0.00152 μM, 0.00457 μM, 0.0137 μM, 0.0411 μM, 0.123 μM, 0.370 μM, 1.11 μM, 3.33 μM, 10 μM) were added to the above cells. […]

T1 sequence (P15056 whole entry V600E): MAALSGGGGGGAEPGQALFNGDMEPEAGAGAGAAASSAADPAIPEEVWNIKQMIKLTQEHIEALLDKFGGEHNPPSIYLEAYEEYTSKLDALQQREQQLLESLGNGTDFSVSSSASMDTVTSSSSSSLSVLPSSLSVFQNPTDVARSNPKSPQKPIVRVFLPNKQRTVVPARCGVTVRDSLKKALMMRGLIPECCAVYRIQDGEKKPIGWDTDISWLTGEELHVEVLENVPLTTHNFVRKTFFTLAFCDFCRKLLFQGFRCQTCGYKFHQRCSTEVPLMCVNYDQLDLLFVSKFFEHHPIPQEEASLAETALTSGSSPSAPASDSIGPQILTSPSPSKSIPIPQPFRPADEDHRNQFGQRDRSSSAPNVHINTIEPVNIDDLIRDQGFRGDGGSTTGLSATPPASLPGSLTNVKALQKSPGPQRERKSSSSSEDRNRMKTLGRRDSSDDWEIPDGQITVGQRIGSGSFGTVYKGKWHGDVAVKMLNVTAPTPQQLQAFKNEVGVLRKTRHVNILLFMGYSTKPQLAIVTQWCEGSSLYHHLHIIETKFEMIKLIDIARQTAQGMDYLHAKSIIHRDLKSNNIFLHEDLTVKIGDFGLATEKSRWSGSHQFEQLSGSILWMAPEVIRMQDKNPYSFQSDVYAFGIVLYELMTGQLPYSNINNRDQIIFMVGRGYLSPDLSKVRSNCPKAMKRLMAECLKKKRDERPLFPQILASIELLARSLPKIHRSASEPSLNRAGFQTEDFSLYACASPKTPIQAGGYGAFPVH

GI50 (BaF3-FL-BRAF-V600E cells, 72 hours): 4.7 µM
Structure (SMILES): Cc1ccc(NC(=O)c2cccc(C(F)(F)F)n2)cc1-n1cc(-c2cncc(N3CCN(C)CC3)c2)cn1 [Compound 1, N-(4-methyl-3-(4-(5-(4-methylpiperazin-1-yl)pyridin-3-yl)-1H-pyrazol-1-yl)phenyl)-6-(trifluoromethyl)picolinamide]
inhibitory effect against BRAF-V600E (in words) (summary of Table 2): no inhibitory effect, or a relatively weak inhibitory effect
